# Test system: RKO p21 uninduced (proliferating) colon adenocarcinoma cells
# Experiment: Alamar Blue cell viability assay, RKO p21 uninduced (proliferating)
# Format: cell-based
# Conditions: Homo sapiens, Table B3, anti-proliferative/cytotoxic activity, 72 hours, read-out: −log EC50 RKO p21 uninduced (proliferating) (converted)
# Method in brief: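 Viability read by Alamar Blue fluorescence (ex 544, em 590 nm), normalised to untreated wells, after 72 h, 37° C, 5% CO2 compound exposure in triplicate. Cells were uninduced (no Ponasterone A), proliferating RKO colon carcinoma p27 or p21 subclones in DMEM with 10% FCS; values are −log EC50 (mol/l).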
smiles,measurement,value
"C=CCN(C)CCN1C(=O)N2[C@H](c3cccc(O)c3)c3[nH]c4cc(F)c(OC)cc4c3C[C@@]2(C)C1=O (racemic) [Example 452, (3aSR,10RS)-2-[2-(Allyl-methyl-amino)-ethyl]-7-fluoro-10-(3-hydroxy-phenyl)-6-methoxy-3a-methyl-3a,4,9,10-tetrahydro-2,9,10a-triaza-cyclopenta[b]fluorene-1,3-dione]",EC50,39.8 to 251 nM
"CCOc1ccc2[nH]c3c(c2c1)C[C@@]1(C)C(=O)N(CCN(C)CC)C(=O)N1[C@@H]3c1cccc(O)c1 (racemic) [Example 158, (3aSR,10RS)-6-Ethoxy-2-[2-(ethyl-methyl-amino)-ethyl]-10-(3-hydroxy-phenyl)-3a-methyl-3a,4,9,10-tetrahydro-2,9,10a-triaza-cyclopenta[b]fluorene-1,3-dione]",EC50,≤ 39.8 nM
"COc1cc2c3c([nH]c2cc1F)[C@@H](c1cccc(O)c1)N1C(=O)N(CCCN2CC=CCC2)C(=O)[C@]1(C)C3 (racemic) [Example 326, (3aSR,10RS)-2-[3-(3,6-Dihydro-2H-pyridin-1-yl)-propyl]-7-fluoro-10-(3-hydroxy-phenyl)-6-methoxy-3a-methyl-3a,4,9,10-tetrahydro-2,9,10a-triaza-cyclopenta[b]fluorene-1,3-dione]",EC50,39.8 to 251 nM
"CN(CCO)CCN1C(=O)N2[C@H](c3cccc(O)c3)c3[nH]c4ccc(Br)cc4c3C[C@@]2(C)C1=O (racemic) [Example 384, (3aSR,10RS)-6-Bromo-2-{2-[(2-hydroxy-ethyl)-methyl-amino]-ethyl}-10-(3-hydroxy-phenyl)-3a-methyl-3a,4,9,10-tetrahydro-2,9,10a-triaza-cyclopenta[b]fluorene-1,3-dione]",EC50,≤ 39.8 nM
"COc1ccc2[nH]c3c(c2c1)C[C@@]1(C)C(=O)N(CCCNCC(C)C)C(=O)N1[C@@H]3c1cccc(O)c1 [Example 534, (3aS,10R)-10-(3-Hydroxy-phenyl)-2-(3-isobutylamino-propyl)-6-methoxy-3a-methyl-3a,4,9,10-tetrahydro-2,9,10a-triaza-cyclopenta[b]fluorene-1,3-dione]",EC50,≤ 39.8 nM
"CCOc1ccc2[nH]c3c(c2c1)C[C@@]1(C)C(=O)N(CCCN(C)C)C(=O)N1[C@@H]3c1cccc(O)c1 (racemic) [Example 226, (3aSR,10RS)-2-(3-Dimethylamino-propyl)-6-ethoxy-10-(3-hydroxy-phenyl)-3a-methyl-3a,4,9,10-tetrahydro-2,9,10a-triaza-cyclopenta[b]fluorene-1,3-dione]",EC50,39.8 to 251 nM
"CC(C)CNCCCN1C(=O)N2[C@H](c3cccc(O)c3)c3[nH]c4cc(F)c(Cl)cc4c3C[C@@]2(C)C1=O (racemic) [Example 459, (3aSR,10RS)-6-Chloro-7-fluoro-10-(3-hydroxy-phenyl)-2-(3-isobutylamino-propyl)-3a-methyl-3a,4,9,10-tetrahydro-2,9,10a-triaza-cyclopenta[b]fluorene-1,3-dione]",EC50,39.8 to 251 nM
"CCN(CCO)CCN1C(=O)N2[C@H](c3cccc(O)c3)c3[nH]c4cc(F)c(Cl)cc4c3C[C@@]2(C)C1=O (racemic) [Example 349, (3aSR,10RS)-6-Chloro-2-{2-[ethyl-(2-hydroxy-ethyl)-amino]-ethyl}-7-fluoro-10-(3-hydroxy-phenyl)-3a-methyl-3a,4,9,10-tetrahydro-2,9,10a-triaza-cyclopenta[b]fluorene-1,3-dione]",EC50,39.8 to 251 nM
"CCN(CCO)CCN1C(=O)N2[C@H](c3cccc(O)c3)c3[nH]c4ccc(OC(F)F)cc4c3C[C@@]2(C)C1=O (racemic) [Example 277, (3aSR,10RS)-6-(1,1-Difluoro-methoxy)-2-{2-[ethyl-(2-hydroxy-ethyl)-amino]-ethyl}-10-(3-hydroxy-phenyl)-3a-methyl-3a,4,9,10-tetrahydro-2,9,10a-triaza-cyclopenta[b]fluorene-1,3-dione]",EC50,39.8 to 251 nM
"C[C@@]12Cc3c([nH]c4ccc(OC(F)F)cc34)[C@@H](c3cccc(O)c3)N1C(=O)N(CCCN1CCCCCC1)C2=O (racemic) [Example 243, (3aSR,10RS)-2-(3-Azepan-1-yl-propyl)-6-(1,1-difluoro-methoxy)-10-(3-hydroxy-phenyl)-3a-methyl-3a,4,9,10-tetrahydro-2,9,10a-triaza-cyclopenta[b]fluorene-1,3-dione]",EC50,≤ 39.8 nM
"CCNCCCN1C(=O)N2[C@H](c3cccc(O)c3)c3[nH]c4ccc(OCC)cc4c3C[C@@]2(C)C1=O (racemic) [Example 187, (3aSR,10RS)-6-Ethoxy-2-(3-ethylamino-propyl)-10-(3-hydroxy-phenyl)-3a-methyl-3a,4,9,10-tetrahydro-2,9,10a-triaza-cyclopenta[b]fluorene-1,3-dione]",EC50,39.8 to 251 nM
"C=CCNCCCN1C(=O)N2[C@H](c3cccc(O)c3)c3[nH]c4cc(F)c(OC)cc4c3C[C@@]2(C)C1=O (racemic) [Example 334, (3aSR,10RS)-2-(3-Allylamino-propyl)-7-fluoro-10-(3-hydroxy-phenyl)-6-methoxy-3a-methyl-3a,4,9,10-tetrahydro-2,9,10a-triaza-cyclopenta[b]fluorene-1,3-dione]",EC50,39.8 to 251 nM
"COCCNCCN1C(=O)N2[C@H](c3cccc(O)c3)c3[nH]c4ccc(OC(F)F)cc4c3C[C@@]2(C)C1=O (racemic) [Example 271, (3aSR,10RS)-6-(1,1-Difluoro-methoxy)-10-(3-hydroxy-phenyl)-2-[2-(2-methoxy-ethylamino)-ethyl]-3a-methyl-3a,4,9,10-tetrahydro-2,9,10a-triaza-cyclopenta[b]fluorene-1,3-dione]",EC50,≤ 39.8 nM
"CCOc1ccc2[nH]c3c(c2c1)C[C@@]1(C)C(=O)N(CCNC2CCC2)C(=O)N1[C@@H]3c1cccc(O)c1 (racemic) [Example 155, (3aSR,10RS)-2-(2-Cyclobutylamino-ethyl)-6-ethoxy-10-(3-hydroxy-phenyl)-3a-methyl-3a,4,9,10-tetrahydro-2,9,10a-triaza-cyclopenta[b]fluorene-1,3-dione]",EC50,≤ 39.8 nM
"COc1ccc2[nH]c3c(c2c1)C[C@@]1(C)C(=O)N(CCCNC(C)(C)C)C(=O)N1[C@@H]3c1cccc(O)c1 [Example 538, (3aS,10R)-2-(3-tert-Butylamino-propyl)-10-(3-hydroxy-phenyl)-6-methoxy-3a-methyl-3a,4,9,10-tetrahydro-2,9,10a-triaza-cyclopenta[b]fluorene-1,3-dione]",EC50,≤ 39.8 nM
"CCOc1ccc2[nH]c3c(c2c1)C[C@@]1(C)C(=O)N(CCNC2CC2)C(=O)N1[C@@H]3c1cccc(O)c1 (racemic) [Example 161, (3aSR,10RS)-2-(2-Cyclopropylamino-ethyl)-6-ethoxy-10-(3-hydroxy-phenyl)-3a-methyl-3a,4,9,10-tetrahydro-2,9,10a-triaza-cyclopenta[b]fluorene-1,3-dione]",EC50,39.8 to 251 nM
"CC(C)CNCCN1C(=O)N2[C@H](c3cccc(O)c3)c3[nH]c4ccc(OC(F)F)cc4c3C[C@@]2(C)C1=O (racemic) [Example 269, (3aSR,10RS)-6-(1,1-Difluoro-methoxy)-10-(3-hydroxy-phenyl)-2-(2-isobutylamino-ethyl)-3a-methyl-3a,4,9,10-tetrahydro-2,9,10a-triaza-cyclopenta[b]fluorene-1,3-dione]",EC50,≤ 39.8 nM
"CCOc1ccc2[nH]c3c(c2c1)C[C@@]1(C)C(=O)N(CCCN(C)CC)C(=O)N1[C@@H]3c1cccc(O)c1 (racemic) [Example 192, (3aSR,10RS)-6-Ethoxy-2-[3-(ethyl-methyl-amino)-propyl]-10-(3-hydroxy-phenyl)-3a-methyl-3a,4,9,10-tetrahydro-2,9,10a-triaza-cyclopenta[b]fluorene-1,3-dione]",EC50,39.8 to 251 nM
"CC(C)N(C)CCCN1C(=O)N2[C@H](c3cccc(O)c3)c3[nH]c4ccc(Br)cc4c3C[C@@]2(C)C1=O (racemic) [Example 218, (3aSR,10RS)-6-Bromo-10-(3-hydroxy-phenyl)-2-[3-(isopropyl-methyl-amino)-propyl]-3a-methyl-3a,4,9,10-tetrahydro-2,9,10a-triaza-cyclopenta[b]fluorene-1,3-dione]",EC50,≤ 39.8 nM
"C[C@@]12Cc3c([nH]c4cc(F)c(Cl)cc34)[C@@H](c3cccc(O)c3)N1C(=O)N(CCNCCO)C2=O (racemic) [Example 342, (3aSR,10RS)-6-Chloro-7-fluoro-2-[2-(2-hydroxy-ethylamino)-ethyl]-10-(3-hydroxy-phenyl)-3a-methyl-3a,4,9,10-tetrahydro-2,9,10a-triaza-cyclopenta[b]fluorene-1,3-dione]",EC50,≤ 39.8 nM
"CC(C)CNCCN1C(=O)N2[C@H](c3cccc(O)c3)c3[nH]c4cc(F)c(Cl)cc4c3C[C@@]2(C)C1=O (racemic) [Example 340, (3aSR,10RS)-6-Chloro-7-fluoro-10-(3-hydroxy-phenyl)-2-(2-isobutylamino-ethyl)-3a-methyl-3a,4,9,10-tetrahydro-2,9,10a-triaza-cyclopenta[b]fluorene-1,3-dione]",EC50,39.8 to 251 nM
"C[C@@]12Cc3c([nH]c4ccc(Cl)cc34)[C@@H](c3cccc(O)c3)N1C(=O)N(CCCN1CC=CCC1)C2=O (racemic) [Example 174, (3aSR,10RS)-6-Chloro-2-[3-(3,6-dihydro-2H-pyridin-1-yl)-propyl]-10-(3-hydroxy-phenyl)-3a-methyl-3a,4,9,10-tetrahydro-2,9,10a-triaza-cyclopenta[b]fluorene-1,3-dione]",EC50,≤ 39.8 nM
"C[C@@]12Cc3c([nH]c4ccc(OC(F)F)cc34)[C@@H](c3cccc(O)c3)N1C(=O)N(CCCN1CCCC1)C2=O (racemic) [Example 237, (3aSR,10RS)-6-(1,1-Difluoro-methoxy)-10-(3-hydroxy-phenyl)-3a-methyl-2-(3-pyrrolidin-1-yl-propyl)-3a,4,9,10-tetrahydro-2,9,10a-triaza-cyclopenta[b]fluorene-1,3-dione]",EC50,≤ 39.8 nM
"C=CCNCCCN1C(=O)N2[C@H](c3cccc(O)c3)c3[nH]c4ccc(OC)cc4c3C[C@@]2(C)C1=O [Example 533, (3aS,10R)-2-(3-Allylamino-propyl)-10-(3-hydroxy-phenyl)-6-methoxy-3a-methyl-3a,4,9,10-tetrahydro-2,9,10a-triaza-cyclopenta[b]fluorene-1,3-dione]",EC50,≤ 39.8 nM

# Source: patent US8530493B2, “Indolopyridines as Eg5 kinesin modulators” (4SC AG, priority 2006, dated 2013)
